Results taken from patent US20220409510A1, “Polypeptides And Methods For Improving Skin Conditions” (Interk Peptide Therapeutics Limited, priority 2018, published 2022).

Legend:
[1] = system: wound (skin punch, ID 12 mm); assay: Murine wound model, percentage closure of the wound; type: in vivo, ICR mice; details: topical 10 ug per mouse daily for 10 consecutive days; Day 5 to Day 11; vs negative control (PBS)
Description: FIGS. 1 and 2 illustrate the effect of polypeptides IK34720 (SEQ ID NO: 3—RSKAKNPLYRRRRRRRRR) (FIG. 1) and the dextro-reverso sequence IK236770 (SEQ ID NO: 4—rrrrrrrrrylpnkaksr) (FIG. 2), on wound healing over 10 days in a murine wound model in accordance with the following protocol.
Three groups of 8 male ICR mice with a mean weight of 22 g (±2 g) were used in the present study. The animals were housed in individual cages during the study. Under isoflurane gas anaesthesia, the shoulder and back region of each animal was shaved and a sharp punch (ID 12 mm) was used to induce a wound by removing the skin, including panniculus carnosus and adherent tissues on Day 1.
Following induction of the wound the polypeptides IK34720 and IK236770 were topically administered to the site of the wound at a dosage of 10 μg per animal. […] An additional group which comprised the administration of Phosphate buffered Saline (PBS) at pH 7.4 was used as a negative control.
The wound healing was analysed on Days 5, 7, 9 and 11 by tracing the periphery of the wound onto clear plastic sheets with the wound area calculated by an Image analyzer ProPlus (Media Cybernetics, Version 4.5.0.29. The percentage closure of the wound (%) was calculated. Percentage closure of the wound was determined on 5, 7, 9 and 11. ANOVA and Dunnett's test were applied to test significant significance between the treated groups (peptide and positive control groups) and the negative control group at each time point of measurement. Differences were considered statistically significant at P<0.05, and are indicated by *.

[2] = system: 8-OHdG formation in the skin; assay: UV-induced oxidative stress (8-OHdG/8oxodG immunohistochemistry) in mouse skin; type: in vivo, Skh:hr1 hairless mice; details: topical immediately after 3 MED UVR; IK34720 20, 100 or 200 μg, Calcitriol 11.4 pmol/cm2; 3 h post-UVR; vs vehicle
Method: 8-hydroxy-2′-deoxyguanosine or 8-oxo-7,8-dihydro-2′-deoxyguanosine (8-OHdG/8-oxodG) is one of the predominant forms of free radical-induced in oxidative lesions with the concentrations of 8-OHdG within a cell being a measurement of oxidative stress. The role of the polypeptide IK34720 (SEQ ID NO: 3) in UV-induced oxidative stress was assessed using the following protocol.
Female Skh:hr1 hairless mice were exposed to solar simulated UV-irradiation (UVR) by exposure to one fluorescent UVB tube (Philips TL40W 12R/S, Eindhoven, The Netherlands) in combination with 6 UVA tubes (Hitachi 40W F40T 10/BL, Tokyo, Japan). The UVA and UVB irradiation was filtered through a 0.125 mm cellulose acetate sheet (Grafix Plastics, Cleveland, Ohio) as previously described (Dixon KM et al., Biochem Mol Biol, 2007, 103(3-5):451-6). […]
Biopsies were taken from UV-irradiated dorsal skin 3 h post-UVR and fixed in Histochoice fixative (Amresco, Solon Ohio) for 6 h. […] Sections were subjected to routine hematoxylin and eosin staining for visualization of sunburn cells at 40× magnification, and the number of sunburn cells per linear millimetre of skin section recorded.
Levels of 8-oxo-2′-deoxyguanosine (8oxodG) indicative of oxidative stress were detected by immunohistochemistry and image analysis (Dixon KM et al., Cancer Prey Res 2011, 4(9):1485-94) as set out below. […]

[3] = system: MM1418-C1 lightly pigmented melanoma cells; assay: Melanin content of melanoma cells after UVB radiation; type: cell-based; details: 10 μM for 24 hours prior to 2 kJ/m2 UVB; measured 24 hours later; vs untreated UVB cells; FIG. 20
Method: The ability of the polypeptide RSKAKNPLYRRRRRRRRR to alter melanin production was examined.
In brief, MM1418-C1 lightly pigmented melanoma cells were grown in 24 well culture plates and treated with 10 μM RSKAKNPLYRRRRRRRRR (“IK-3”) for 24 hours prior to being exposed to 2 kJ/m2 UVB radiation. Controls (not treated with RSKAKNPLYRRRRRRRRR) labelled “Con” and “UVB”, respectively, were exposed to either 0 or 2 kJ/m2 UVB radiation. Cell groups were returned to the incubator for 24 hours and then the levels of melanin and protein in the cells were measured spectrophotometrically. In each experiment triplicate samples were measured. Data shown in FIG. 19 indicate the average values±SEM (μg melanin/mg cell protein) exposed to 0 or 2 kJ/m2 UVB which had been pre-treated with 0 or 10 μM of RSKAKNPLYRRRRRRRRR 24 hours prior to being exposed to UVB radiation. The t-test (2-tailed) was used to determine statistical significance, *p<0.05, ***p<0.001.

RSKAKNPLYRRRRRRRRR [IK34720, 18-residue polypeptide: … with a C-terminal polyarginine region of 8 arginines]
wound closure percentage [1]: statistically significant increase (P<0.05) in wound closure percentage
8-OHdG formation in the skin [2]: inhibits 8-OHdG formation
melanin content of cells [3]: significantly decreased melanin content
